Test results reported in patent publication US20250017940A1, “SELECTIVE PEPTIDOMIMETIC MODULATORS OF CAV2.2 (N-TYPE) VOLTAGE-GATED CALCIUM CHANNELS AND USES THEREOF” (New York University, priority 2023, published 2025).

Biological target: T1, Cav2.2 (Rattus norvegicus, UniProt Q02294)
T1 construct: Recordings were obtained from acutely dissociated DRG neurons; endogenous in cells; host or cells: primary rat DRG neurons
Experiment: Immunocytochemistry / confocal microscopy of Cav2.2 membrane expression in DRG neurons
Format: cell-based
Settings: 20 μM overnight (DMSO: 3.59±0.42)
Protocol: Lumbar DRGs were dissected from 100 g female Sprague-Dawley rats using procedures as described previously (Gomez et al., 2022). DRGs were excised and placed in sterile DMEM (Cat #11965; Thermo Fisher Scientific, Waltham, MA). The ganglia were dissociated enzymatically with collagenase type I (5 mg/mL, Cat #LS004194; Worthington) and neutral protease (3.125 mg/mL, Cat #LS02104; Worthington, Lakewood, NJ) for 50 minutes at 37° C. under gentle agitation. The dissociated cells were then centrifuged (800 rpm for 5 min) and resuspended in DMEM containing 1% penicillin/streptomycin sulfate (Cat #15140, Life Technologies, Carlsbad, CA), 10% fetal bovine serum [HyClone]), and 30 ng/mL nerve growth factor (Cat #N2513, Millipore Sigma, St. Louis, MO). The cells were seeded on poly-D-lysine (Cat #P6407, Millipore Sigma, St. Louis, MO) and laminin (Cat #sc-29012, Santa Cruz Biotechnology, Dallas, TX) -coated 12- or 15-mm glass coverslips and incubated at 37° C. All cultures were used within 48 hours.
Immunocytochemistry was performed on DRG neurons incubated with vehicle (0.1% DMSO) or CBD3063 (20 μM) overnight. […] For all quantitative comparisons among cells under differing experimental conditions, camera gain and other relevant settings were kept constant. The freeware image analysis program Image J (http://rsb.info.nih.gov/ij/) was used for quantifying cellular fluorescence. […]

T1 sequence (Q02294 whole entry): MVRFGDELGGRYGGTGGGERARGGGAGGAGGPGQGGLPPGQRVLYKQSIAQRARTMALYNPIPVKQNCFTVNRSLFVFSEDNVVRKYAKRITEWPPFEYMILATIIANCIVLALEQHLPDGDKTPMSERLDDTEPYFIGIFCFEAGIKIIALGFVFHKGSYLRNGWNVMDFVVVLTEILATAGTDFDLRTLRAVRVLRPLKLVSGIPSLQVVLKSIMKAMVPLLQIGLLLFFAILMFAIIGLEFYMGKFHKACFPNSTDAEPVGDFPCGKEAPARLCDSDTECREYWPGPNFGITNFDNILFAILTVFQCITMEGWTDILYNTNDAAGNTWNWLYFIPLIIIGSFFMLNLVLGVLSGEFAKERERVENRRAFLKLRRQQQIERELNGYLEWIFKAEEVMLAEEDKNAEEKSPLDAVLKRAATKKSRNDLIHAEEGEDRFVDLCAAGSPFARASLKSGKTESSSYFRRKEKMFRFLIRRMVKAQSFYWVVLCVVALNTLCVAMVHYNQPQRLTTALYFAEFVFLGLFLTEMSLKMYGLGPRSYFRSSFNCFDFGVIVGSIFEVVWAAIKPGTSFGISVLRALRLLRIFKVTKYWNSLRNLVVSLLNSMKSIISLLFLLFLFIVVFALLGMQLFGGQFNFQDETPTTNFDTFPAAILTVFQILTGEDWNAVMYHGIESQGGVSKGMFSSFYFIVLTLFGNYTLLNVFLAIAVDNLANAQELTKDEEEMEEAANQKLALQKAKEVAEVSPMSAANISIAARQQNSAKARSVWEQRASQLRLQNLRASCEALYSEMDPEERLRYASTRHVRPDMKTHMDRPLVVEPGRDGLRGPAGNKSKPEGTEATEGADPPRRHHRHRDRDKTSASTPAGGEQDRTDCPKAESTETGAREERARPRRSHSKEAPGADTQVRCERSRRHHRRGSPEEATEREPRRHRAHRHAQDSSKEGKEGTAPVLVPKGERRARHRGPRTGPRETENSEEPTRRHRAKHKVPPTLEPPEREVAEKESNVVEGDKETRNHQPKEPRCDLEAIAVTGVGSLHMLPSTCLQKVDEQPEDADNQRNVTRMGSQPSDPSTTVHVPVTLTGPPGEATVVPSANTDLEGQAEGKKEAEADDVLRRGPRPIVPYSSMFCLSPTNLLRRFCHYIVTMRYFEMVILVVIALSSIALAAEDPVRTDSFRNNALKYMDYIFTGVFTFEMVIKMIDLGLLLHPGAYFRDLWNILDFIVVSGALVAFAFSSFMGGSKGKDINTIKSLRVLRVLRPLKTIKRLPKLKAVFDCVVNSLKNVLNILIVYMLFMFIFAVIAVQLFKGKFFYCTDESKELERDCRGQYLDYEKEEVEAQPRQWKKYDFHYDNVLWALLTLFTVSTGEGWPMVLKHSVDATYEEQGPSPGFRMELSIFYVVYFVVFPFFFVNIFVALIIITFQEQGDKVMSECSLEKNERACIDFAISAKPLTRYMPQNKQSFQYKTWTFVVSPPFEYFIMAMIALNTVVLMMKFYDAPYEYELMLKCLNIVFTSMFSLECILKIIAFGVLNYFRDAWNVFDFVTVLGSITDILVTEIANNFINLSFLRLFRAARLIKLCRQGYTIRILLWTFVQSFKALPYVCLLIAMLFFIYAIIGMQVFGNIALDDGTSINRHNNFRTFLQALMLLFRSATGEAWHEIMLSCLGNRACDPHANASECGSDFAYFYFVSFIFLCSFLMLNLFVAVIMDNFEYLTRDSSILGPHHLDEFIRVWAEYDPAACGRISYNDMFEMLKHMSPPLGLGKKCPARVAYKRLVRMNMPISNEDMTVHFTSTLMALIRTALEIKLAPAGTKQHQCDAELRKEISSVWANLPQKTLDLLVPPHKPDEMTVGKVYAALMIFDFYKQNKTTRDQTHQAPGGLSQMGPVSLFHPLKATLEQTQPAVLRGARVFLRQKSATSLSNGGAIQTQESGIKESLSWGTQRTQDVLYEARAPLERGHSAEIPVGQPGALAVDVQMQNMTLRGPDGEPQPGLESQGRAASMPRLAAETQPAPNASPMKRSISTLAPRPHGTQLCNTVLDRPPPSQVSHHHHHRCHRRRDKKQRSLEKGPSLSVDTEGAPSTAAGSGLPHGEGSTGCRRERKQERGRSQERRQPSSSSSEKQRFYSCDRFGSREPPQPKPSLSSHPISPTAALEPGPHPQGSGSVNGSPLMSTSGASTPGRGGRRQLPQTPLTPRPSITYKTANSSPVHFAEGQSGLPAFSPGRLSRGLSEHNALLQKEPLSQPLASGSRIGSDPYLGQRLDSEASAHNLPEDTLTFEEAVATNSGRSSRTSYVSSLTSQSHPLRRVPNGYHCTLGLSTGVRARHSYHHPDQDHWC
T1 sequence (P54290 25-1091 partner): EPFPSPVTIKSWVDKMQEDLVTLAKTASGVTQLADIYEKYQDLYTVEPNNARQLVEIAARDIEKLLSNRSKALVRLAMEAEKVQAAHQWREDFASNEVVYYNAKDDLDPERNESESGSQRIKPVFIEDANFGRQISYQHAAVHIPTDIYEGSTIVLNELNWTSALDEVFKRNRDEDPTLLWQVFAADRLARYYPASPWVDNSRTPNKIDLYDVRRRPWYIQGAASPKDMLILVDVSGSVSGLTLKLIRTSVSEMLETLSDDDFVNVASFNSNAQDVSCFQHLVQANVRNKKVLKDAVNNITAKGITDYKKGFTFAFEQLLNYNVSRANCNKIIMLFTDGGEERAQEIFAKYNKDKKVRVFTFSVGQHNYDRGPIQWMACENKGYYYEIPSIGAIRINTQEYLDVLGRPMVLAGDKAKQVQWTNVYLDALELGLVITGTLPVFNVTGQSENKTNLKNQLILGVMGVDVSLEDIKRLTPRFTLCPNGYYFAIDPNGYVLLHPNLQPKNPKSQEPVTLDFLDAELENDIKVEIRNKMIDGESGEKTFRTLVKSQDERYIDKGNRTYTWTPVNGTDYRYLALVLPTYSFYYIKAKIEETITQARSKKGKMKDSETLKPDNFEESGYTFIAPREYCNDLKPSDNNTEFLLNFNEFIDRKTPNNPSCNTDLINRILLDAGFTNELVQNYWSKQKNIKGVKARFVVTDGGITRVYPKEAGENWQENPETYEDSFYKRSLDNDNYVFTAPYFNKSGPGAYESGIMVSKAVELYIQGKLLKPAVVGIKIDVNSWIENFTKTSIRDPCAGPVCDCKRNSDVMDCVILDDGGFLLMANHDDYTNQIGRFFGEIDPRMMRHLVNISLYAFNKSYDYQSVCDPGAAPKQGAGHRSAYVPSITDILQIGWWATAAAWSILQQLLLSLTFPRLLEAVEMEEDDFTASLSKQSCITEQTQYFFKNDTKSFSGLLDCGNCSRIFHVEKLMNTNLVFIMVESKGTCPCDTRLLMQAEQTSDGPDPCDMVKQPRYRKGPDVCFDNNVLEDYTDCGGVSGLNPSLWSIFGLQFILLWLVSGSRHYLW
T1 sequence (P54287 whole entry partner): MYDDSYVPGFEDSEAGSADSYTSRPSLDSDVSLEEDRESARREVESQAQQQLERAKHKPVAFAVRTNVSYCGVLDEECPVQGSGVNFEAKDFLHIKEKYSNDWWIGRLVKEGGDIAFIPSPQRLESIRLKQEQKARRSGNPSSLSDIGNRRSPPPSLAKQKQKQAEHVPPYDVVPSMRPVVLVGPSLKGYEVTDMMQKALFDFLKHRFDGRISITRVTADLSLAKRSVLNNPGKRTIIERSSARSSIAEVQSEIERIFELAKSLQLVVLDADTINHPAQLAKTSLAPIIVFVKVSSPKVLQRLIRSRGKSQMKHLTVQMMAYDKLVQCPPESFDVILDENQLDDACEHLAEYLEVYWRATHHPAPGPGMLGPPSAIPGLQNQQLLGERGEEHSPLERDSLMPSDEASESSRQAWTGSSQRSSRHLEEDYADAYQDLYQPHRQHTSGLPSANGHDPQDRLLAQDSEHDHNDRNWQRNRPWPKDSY

- Cav2.2 membrane/cytosol ratio: 1.64±0.10
SMILES: CC(=O)N[C@@H]1CCCN(C(=O)NCCCNc2ccccn2)C1 [CBD3063, (3R)-3-acetamido-N-[3-(pyridin-2-ylamino)propyl]piperidine-1-carboxamide]
